Legend:
sodium channel = assay: Guanidine influx assay (14C-guanidine radiotracer flux, in vitro); assay type: cell-based, human or rat; details: guanidine influx assay using a known cell line that expresses a sodium channel
Method in brief: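 Human or rat sodium channels stably expressed in endogenous or recombinant cells, plated ~100,000 cells/well for 20-24 h at 37 °C. Cells were treated with test agent in low-sodium choline HEPES saline plus aconitine and 14C-guanidine at ambient temperature, washed, and counted by scintillation; IC50 from 4-parameter logistic fit.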

CYP3A4 = CYP3A4 (Homo sapiens, UniProt P08684); assay: Cytochrome P450 (CYP450) Inhibition Assay, CYP3A4 (Vivid fluorescence, BOMCC substrate); details: human, P450 Baculosomes (recombinant CYP3A4), probe BOMCC (Vivid substrate)
Chain of CYP3A4 (P08684 whole entry): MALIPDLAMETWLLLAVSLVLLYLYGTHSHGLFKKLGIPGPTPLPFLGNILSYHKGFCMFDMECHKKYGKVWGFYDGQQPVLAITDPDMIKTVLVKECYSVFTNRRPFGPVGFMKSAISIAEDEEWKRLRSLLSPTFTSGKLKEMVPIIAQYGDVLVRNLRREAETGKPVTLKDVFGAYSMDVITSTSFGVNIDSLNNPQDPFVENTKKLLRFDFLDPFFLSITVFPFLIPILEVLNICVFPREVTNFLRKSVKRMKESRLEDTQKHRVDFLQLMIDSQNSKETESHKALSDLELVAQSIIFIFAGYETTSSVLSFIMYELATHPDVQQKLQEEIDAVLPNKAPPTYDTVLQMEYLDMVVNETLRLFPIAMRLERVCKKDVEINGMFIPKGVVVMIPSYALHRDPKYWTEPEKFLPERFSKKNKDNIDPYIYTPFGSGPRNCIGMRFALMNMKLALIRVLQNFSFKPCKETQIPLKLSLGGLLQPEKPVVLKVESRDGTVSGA

Row | Compound | IC50 (sodium channel; activity level class) | melting point | inhibition at 10 µM (CYP3A4) | IC50 (sodium channel)
1 | Cc1nc2cc3c(cc2o1)C1(CO3)C(=O)N(C[C@H]2CCCO2)c2ccccc21 (stereo partly drawn) [Example 4.58, 2-methyl-1′-[(2R)-tetrahydrofuran-2-ylmethyl]spiro[furo[2,3-f][1,3]benzoxazole-7,3′-indol]-2′(1′H)-one] | 1000 to 10000 nM | 188 to 190 °C | < 50% | –
2 | O=C1N(CCc2noc(C(F)(F)F)n2)c2ccccc2C12COc1cc3c(cc12)OCO3 (stereo not drawn) [Example 11.18, 1′-{2-[5-(trifluoromethyl)-1,2,4-oxadiazol-3-yl]ethyl}spiro[furo[2,3-f][1,3]benzodioxole-7,3′-indol]-2′(1′H)-one] | – | 45 to 48 °C | > 50% | 1 to 100 nM
3 | O=C1N(Cc2ccccc2C(F)(F)F)c2ccccc2C12COc1cc3c(cc12)OCCO3 (stereo not drawn) [Example 4.113, 1′-[2-(trifluoromethyl)benzyl]-2,3-dihydrospiro[furo[2,3-g][1,4]benzodioxine-8,3′-indol]-2′(1′H)-one] | 1 to 100 nM | 207 to 208 °C | < 50% | –
4 | O=C1N(Cc2noc(C(F)(F)F)n2)c2ccccc2C12COc1cc3c(cc12)OCO3 (stereo not drawn) [Example 11.72, 1-{[5-(trifluoromethyl)-1,2,4-oxadiazol-3-yl]methyl}spiro[furo[2,3-f][1,3]benzodioxole-7,3′-indol]-2′(1′H)-one] | – | 139 to 140 °C | > 50% | 1 to 100 nM
5 | COc1cc2c(cc1C)[C@@]1(CO2)C(=O)Nc2ccccc21 [Example 3.25, (3S)-6-methoxy-5-methylspiro[1-benzofuran-3,3′-indol]-2′(1′H)-one] | 1000 to 10000 nM | > 250 °C | < 50% | –
6 | O=C1N(Cc2ccc(O)cc2)c2ccccc2C12COc1cc3c(cc12)CCO3 (stereo not drawn) [Example 17, 1′-(4-hydroxybenzyl)-5,6-dihydrospiro[benzo[1,2-b:5,4-b′]difuran-3,3′-indol]-2′(1′H)-one] | – | 226 to 227 °C | > 50% | 1 to 100 nM
7 | Nc1nc(CN2C(=O)C3(COc4cc5c(cc43)OCO5)c3ccccc32)cs1 (stereo not drawn) [Example 4.85, 1′-[(2-amino-1,3-thiazol-4-yl)methyl]spiro[furo[2,3-f][1,3]benzodioxole-7,3′-indol]-2′(1′H)-one] | 100 to 1000 nM | 230 to 235 °C | > 50% | –
8 | COCCNC(=O)c1ccc(CN2C(=O)C3(COc4cc5c(cc43)CCO5)c3ccccc32)cc1 (stereo not drawn) [Example 12.40, N-(2-methoxyethyl)-4-[(2′-oxo-5,6-dihydrospiro[benzo[1,2-b:5,4-b′]difuran-3,3′-indol]-1′(2′H)-yl)methyl]benzamide] | – | 182 to 183 °C | < 50% | 100 to 1000 nM
9 | O=C1N(Cc2ncccc2C(F)(F)F)c2ccccc2C12COc1ccc3c(c12)OCCO3 (stereo not drawn) [Example 11.109, 1′-{[3-(trifluoromethyl)pyridin-2-yl]methyl}-2,3-dihydrospiro[furo[3,2-f][1,4]benzodioxine-9,3′-indol]-2′(1′H)-one] | – | 245 to 247 °C | < 50% | 1000 to 10000 nM
10 | O=C1N(Cc2cnc(O)nc2)c2ccccc2C12COc1cc3c(cc12)OCCO3 (stereo not drawn) [Example 35.1, 1′-[(2-hydroxypyrimidin-5-yl)methyl]-2,3-dihydrospiro[furo[2,3-g][1,4]benzodioxine-8,3′-indol]-2′(1′H)-one] | – | > 250 °C | < 50% | 1000 to 10000 nM
11 | COCCOCCN1C(=O)C2(COc3cc4c(cc32)OCCO4)c2c1ccc1ncsc21 (stereo not drawn) [Example 9.71, 6′-[2-(2-methoxyethoxy)ethyl]-2,3-dihydrospiro[furo[2,3-g][1,4]benzodioxine-8,8′-[1,3]thiazolo[5,4-e]indol]-7′(6′H)-one] | – | 156 to 158 °C | > 50% | 100 to 1000 nM
12 | C[C@H](O)CN1C(=O)C2(COc3cc4c(cc32)CCO4)c2ccccc21 (stereo partly drawn) [Example 14, 1′-[(2S)-2-hydroxypropyl]-5,6-dihydrospiro[benzo[1,2-b:5,4-b′]difuran-3,3′-indol]-2′(1′H)-one] | – | 171 to 174 °C | < 50% | 100 to 1000 nM
13 | O=C(CN1C(=O)C2(COc3cc4c(cc32)OCCO4)c2ccccc21)Nc1ccccc1F (stereo not drawn) [Example 13.7, N-(2-fluorophenyl)-2-(2′-oxo-2,3-dihydrospiro[furo[2,3-g][1,4]benzodioxine-8,3′-indol]-1′(2′H)-yl)acetamide] | – | 117 to 119 °C | < 50% | 1 to 100 nM
14 | O=C(Nc1ccccc1F)c1ccccc1CN1C(=O)C2(COc3cc4c(cc32)CCO4)c2ccccc21 (stereo not drawn) [Example 12.12, N-(2-fluorophenyl)-2-[(2′-oxo-5,6-dihydrospiro[benzo[1,2-b:5,4-b′]difuran-3,3′-indol]-1′(2′H)-yl)methyl]benzamide] | – | 195 to 197 °C | > 50% | 100 to 1000 nM
15 | COc1cc2c(cc1F)OCC21C(=O)N(Cc2ccc(C(F)(F)F)o2)c2ccccc21 (stereo not drawn) [Example 4.83, 6-fluoro-5-methoxy-1′-{[5-(trifluoromethyl)furan-2-yl]methyl}spiro[1-benzofuran-3,3′-indol]-2′(1′H)-one] | 1000 to 10000 nM | 132 to 134 °C | > 50% | –
16 | O=C1N(C[C@H]2CCCO2)c2ccccc2C12COc1cc3c(cc12)OCCCO3 (stereo partly drawn) [Example 8.11, 1′-[(2R)-tetrahydrofuran-2-ylmethyl]-3,4-dihydro-2H-spiro[furo[2,3-h][1,5]benzodioxepine-9,3′-indol]-2′(1′H)-one] | 1000 to 10000 nM | 134 to 138 °C | < 50% | –
17 | O=C(c1ccccc1CN1C(=O)C2(COc3cc4c(cc32)CCO4)c2ccccc21)N1CCCCC1 (stereo not drawn) [Example 12.17, 1′-[2-(piperidin-1-ylcarbonyl)benzyl]-5,6-dihydrospiro[benzo[1,2-b:5,4-b′]difuran-3,3′-indol]-2′(1′H)-one] | – | 168 to 170 °C | > 50% | 1000 to 10000 nM
18 | CC(C)c1nc(CN2C(=O)C3(COc4cc5c(cc43)OCO5)c3c(Cl)cccc32)no1 (stereo not drawn) [Example 11.25, 4′-chloro-1′-{[5-(1-methylethyl)-1,2,4-oxadiazol-3-yl]methyl}spiro[furo[2,3-f][1,3]benzodioxole-7,3′-indol]-2′(1′H)-one] | – | 165 to 167 °C | > 50% | 1 to 100 nM
19 | O=C1N(Cc2cccc(OCc3ccccc3)c2)c2ccccc2C12COc1cc3c(cc12)CCO3 (stereo not drawn) [Example 9.11, 1′-[3-(benzyloxy)benzyl]-5,6-dihydrospiro[benzo[1,2-b:5,4-b′]difuran-3,3′-indol]-2′(1′H)-one] | 100 to 1000 nM | 66 to 68 °C | < 50% | –
20 | O=C1N(Cc2ccccn2)c2ccccc2C12COc1cc3c(cc12)OCCO3 (stereo not drawn) [Example 4.41, 1′-(pyridin-2-ylmethyl)-2,3-dihydrospiro[furo[2,3-g][1,4]benzodioxine-8,3′-indol]-2′(1′H)-one] | 1 to 100 nM | 208 to 209 °C | < 50% | –
21 | CC(C)CCN1C(=O)C2(COc3cc(O)c(C(=O)C(F)(F)F)cc32)c2ccccc21 (stereo not drawn) [Example 11.50, 6-hydroxy-1′-(3-methylbutyl)-5-(trifluoroacetyl)spiro[1-benzofuran-3,3′-indol]-2′(1′H)-one] | – | 87 to 88 °C | > 50% | 1000 to 10000 nM
22 | O=C1N(Cc2ncccc2C(F)(F)F)c2ccccc2C12COc1cc3c(cc12)OC(F)(F)O3 (stereo not drawn) [Example 2.36, 2,2-difluoro-1′-{[3-(trifluoromethyl)pyridin-2-yl]methyl}spiro[furo[2,3-f][1,3]benzodioxole-7,3′-indol]-2′(1′H)-one] | 1000 to 10000 nM | 200 to 201 °C | < 50% | –
23 | Cc1nc2cc3c(cc2s1)C1(CO3)C(=O)N(CCC(C)C)c2ccccc21 (stereo not drawn) [Example 4.56, 2-methyl-1′-(3-methylbutyl)spiro[furo[2,3-f][1,3]benzothiazole-7,3′-indol]-2′(1′H)-one] | 1000 to 10000 nM | 137 to 138 °C | > 50% | –
24 | O=C1N(Cc2ncccc2F)c2ccccc2[C@]12COc1cc3c(cc12)OCCO3 [Example 4.108, (8S)-1′-[(3-fluoropyridin-2-yl)methyl]-2,3-dihydrospiro[furo[2,3-g][1,4]benzodioxine-8,3′-indol]-2′(1′H)-one] | 1 to 100 nM | 125 to 126 °C | < 50% | –
